Numbered stars: 1 amine (or outer) side, 2 acyl side, 3 side chain; on linkers, the order of the positions; unused ones are H or OH. Square brackets hold non-standard residues; d marks the D form. Peptide text beside a SMILES is read from it. * marks the point of attachment. Phe(3,4-(OMe)2) = COc1ccc(C[C@H](N)C(=O)O)cc1OC; Pro(trans-4-F) = O=C(O)[C@@H]1C[C@@H](F)CN1; X6 = NC[C@@H](O)[C@@H](N[*:1])C(=O)[*:2]; Dab(3S-OH) = NC[C@H](O)[C@H](N)C(=O)O; Phe(2-F) = N[C@@H](Cc1ccccc1F)C(=O)O; ΔZArg = N=C(N)NCC/C=C(\N)C(=O)O; dOrn = NCCC[C@@H](N)C(=O)O; NH(CH2)5NH2 = NCCCCCN*; NH(CH2)4NH2 = NCCCCN*
Legend:
Test in all cases: MIC, broth microdilution (CLSI), reference strain
Settings in all cases: CAMHB
[1] = system: Escherichia coli ATCC 25922
[2] = system: Staphylococcus aureus ATCC 13709
[3] = system: Pseudomonas aeruginosa ATCC 27853
[4] = system: Acinetobacter baumannii ATCC 19606

Structure (SMILES)	Ec: MIC Escherichia coli ATCC 25922 [1]	Sa: MIC Staphylococcus aureus ATCC 13709 [2]	Pa: MIC Pseudomonas aeruginosa ATCC 27853 [3]	Ab: MIC Acinetobacter baumannii ATCC 19606 [4]
N=C(N)NCC/C=C(\NC(=O)[C@@H](CCCCN)NC(=O)[C@H](Cc1cnc[nH]1)NC(=O)[C@@H]1CCCN1C(=O)[C@@H](CCCN)NC(=O)CNC(=O)[C@@H](NC(=O)[C@@H](NC(=O)[C@@H](N)CCCCN)[C@@H](O)CN)[C@@H](O)CN)C(=O)N[C@@H](CCCCN)C(=O)NCCCCN [22.11] (H-K[Dab(3S-OH)][Dab(3S-OH)]G[dOrn]PH[dK][ΔZArg]K-{NH(CH2)4NH2})	++ (≤8 μg/mL)	++ (≤8 μg/mL)	+ (≤32 μg/mL)	− (>32 μg/mL)
N=C(N)NCC/C=C(\NC(=O)[C@H](CCCCN)NC(=O)[C@H](Cc1c[nH]cn1)NC(=O)[C@@H]1CCCN1C(=O)[C@@H](CCCN)NC(=O)CNC(=O)[C@@H](NC(=O)[C@@H](NC(=O)[C@@H](N)CCCCN)[C@@H](O)CN)[C@@H](O)CN)C(=O)N[C@@H](CCCCN)C(=O)NCCCCCN [22.12] (H-K[Dab(3S-OH)][Dab(3S-OH)]G[dOrn]PHK[ΔZArg]K-{NH(CH2)5NH2}; C-terminus assumed)	++ (≤8 μg/mL)	++ (≤8 μg/mL)	− (>32 μg/mL)	− (>32 μg/mL)
N=C(N)NCC/C=C(\NC(=O)[C@H](CCCCN)NC(=O)[C@H](Cc1cnc[nH]1)NC(=O)[C@@H]1C[C@@H](F)CN1C(=O)[C@@H](CCCN)NC(=O)CNC(=O)[C@@H](NC(=O)[C@@H](NC(=O)[C@@H](N)CCCCN)[C@@H](O)CN)[C@@H](O)CN)C(=O)N[C@@H](CCCCN)C(=O)NCCCCN [22.13] (H-K[Dab(3S-OH)][Dab(3S-OH)]G[dOrn][Pro(trans-4-F)]HK[ΔZArg]K-{NH(CH2)4NH2})	+ (≤32 μg/mL)	++ (≤8 μg/mL)	++ (≤8 μg/mL)	− (>32 μg/mL)
N=C(N)NCCC[C@H](NC(=O)[C@H](CCCCN)NC(=O)[C@H](Cc1cnc[nH]1)NC(=O)[C@@H]1CCCN1C(=O)[C@@H](CCCN)NC(=O)CNC(=O)[C@@H](NC(=O)[C@@H](NC(=O)[C@@H](N)CCCCN)[C@@H](O)CN)[C@@H](O)CN)C(=O)N[C@@H](CCCCN)C(=O)NCCCCN [22.17] (H-K[Dab(3S-OH)][Dab(3S-OH)]G[dOrn]PHKRK-{NH(CH2)4NH2})	+ (≤32 μg/mL)	++ (≤8 μg/mL)	− (>32 μg/mL)	− (>32 μg/mL)
C[C@H](NC(=O)[C@@H](CCCN)NC(=O)CNC(=O)[C@@H](NC(=O)[C@@H](NC(=O)[C@@H](N)CCCCN)[C@@H](O)CN)[C@@H](O)CN)C(=O)N[C@@H](Cc1cnc[nH]1)C(=O)N[C@@H](CCCCN)C(=O)N/C(=C\CCNC(=N)N)C(=O)N[C@@H](CCCCN)C(=O)NCCCCN [22.18] (H-K[Dab(3S-OH)][Dab(3S-OH)]G[dOrn]AHK[ΔZArg]K-{NH(CH2)4NH2})	+ (≤32 μg/mL)	++ (≤8 μg/mL)	− (>32 μg/mL)	− (>32 μg/mL)
NCCCCNC(=O)[C@H](CCCCN)NC(=O)[C@@H](CCCCN)NC(=O)[C@H](CCCCN)NC(=O)[C@H](Cc1cnc[nH]1)NC(=O)[C@@H]1CCCN1C(=O)[C@@H](CCCN)NC(=O)CNC(=O)[C@@H](NC(=O)[C@@H](NC(=O)[C@@H](N)CCCCN)[C@@H](O)CN)[C@@H](O)CN [22.21] (H-K[Dab(3S-OH)][Dab(3S-OH)]G[dOrn]PHK[dK]K-{NH(CH2)4NH2})	− (>32 μg/mL)	++ (≤8 μg/mL)	− (>32 μg/mL)	− (>32 μg/mL)
NCCCCNC(=O)[C@H](CCCCN)NC(=O)[C@@H](CCCN)NC(=O)[C@H](CCCCN)NC(=O)[C@H](Cc1cnc[nH]1)NC(=O)[C@@H]1CCCN1C(=O)[C@@H](CCCN)NC(=O)CNC(=O)[C@@H](NC(=O)[C@@H](NC(=O)[C@@H](N)CCCCN)[C@@H](O)CN)[C@@H](O)CN [22.22] (H-K[Dab(3S-OH)][Dab(3S-OH)]G[dOrn]PHK[dOrn]K-{NH(CH2)4NH2})	− (>32 μg/mL)	++ (≤8 μg/mL)	− (>32 μg/mL)	− (>32 μg/mL)
N=C(N)NCC/C=C(\NC(=O)[C@H](CCCCN)NC(=O)[C@H](Cc1cnc[nH]1)NC(=O)[C@@H]1CCCN1C(=O)[C@@H](CCCN)NC(=O)CNC(=O)[C@H](NC(=O)[C@@H](NC(=O)[C@@H](N)CCCCN)[C@@H](O)CN)[C@H](O)CN)C(=O)N[C@@H](CCCCN)C(=O)NCCCCN [22.32] (H-K[Dab(3S-OH)][X6]G[dOrn]PHK[ΔZArg]K-{NH(CH2)4NH2})	− (>32 μg/mL)	++ (≤8 μg/mL)	− (>32 μg/mL)	− (>32 μg/mL)

Now from value to molecule:

Ec: MIC Escherichia coli ATCC 25922 [1]	Sa: MIC Staphylococcus aureus ATCC 13709 [2]	Pa: MIC Pseudomonas aeruginosa ATCC 27853 [3]	Ab: MIC Acinetobacter baumannii ATCC 19606 [4]	Structure (SMILES)
++ (≤8 μg/mL)	++ (≤8 μg/mL)	− (>32 μg/mL)	− (>32 μg/mL)	C[C@H](NC(=O)/C(=C/CCNC(=N)N)NC(=O)[C@H](CCCCN)NC(=O)[C@H](Cc1cnc[nH]1)NC(=O)[C@@H]1CCCN1C(=O)[C@@H](CCCN)NC(=O)CNC(=O)[C@@H](NC(=O)[C@@H](NC(=O)[C@@H](N)CCCCN)[C@@H](O)CN)[C@@H](O)CN)C(N)=O [22.14] (H-K[Dab(3S-OH)][Dab(3S-OH)]G[dOrn]PHK[ΔZArg]A-NH2)
+ (≤32 μg/mL)	++ (≤8 μg/mL)	++ (≤8 μg/mL)	− (>32 μg/mL)	N=C(N)NCC/C=C(\NC(=O)[C@H](CCCCN)NC(=O)[C@H](Cc1cnc[nH]1)NC(=O)[C@@H]1CCCN1C(=O)[C@@H](CCCN)NC(=O)CNC(=O)[C@@H](NC(=O)[C@@H](NC(=O)[C@@H](N)CCCCN)[C@@H](O)CN)[C@@H](O)CN)C(=O)O [22.20] (H-K[Dab(3S-OH)][Dab(3S-OH)]G[dOrn]PHK[ΔZArg]-OH)
+ (≤32 μg/mL)	++ (≤8 μg/mL)	− (>32 μg/mL)	− (>32 μg/mL)	CCOC(=O)[C@H](CCCCN)NC(=O)/C(=C/CCNC(=N)N)NC(=O)[C@H](CCCCN)NC(=O)[C@H](Cc1cnc[nH]1)NC(=O)[C@@H]1CCCN1C(=O)[C@@H](CCCN)NC(=O)CNC(=O)[C@@H](NC(=O)[C@@H](NC(=O)[C@@H](N)CCCCN)[C@@H](O)CN)[C@@H](O)CN [22.28] (H-K[Dab(3S-OH)][Dab(3S-OH)]G[dOrn]PHK[ΔZArg]K-OEt)
+ (≤32 μg/mL)	++ (≤8 μg/mL)	− (>32 μg/mL)	− (>32 μg/mL)	N=C(N)NCC/C=C(\NC(=O)[C@H](CCCCN)NC(=O)[C@H](Cc1cnc[nH]1)NC(=O)[C@@H]1CCCN1C(=O)[C@@H](CCCN)NC(=O)CNC(=O)[C@@H](NC(=O)[C@@H](NC(=O)[C@@H](N)CCCCN)[C@@H](O)CN)[C@@H](O)CN)C(=O)N[C@@H](CCCCN)C(=O)O [22.29] (H-K[Dab(3S-OH)][Dab(3S-OH)]G[dOrn]PHK[ΔZArg]K-OH)
+ (≤32 μg/mL)	++ (≤8 μg/mL)	− (>32 μg/mL)	− (>32 μg/mL)	N=C(N)NCCC[C@@H](NC(=O)[C@H](CCCCN)NC(=O)[C@H](Cc1cnc[nH]1)NC(=O)[C@@H]1CCCN1C(=O)[C@@H](CCCN)NC(=O)CNC(=O)[C@@H](NC(=O)[C@@H](NC(=O)[C@@H](N)CCCCN)[C@@H](O)CN)[C@@H](O)CN)C(N)=O [22.30] (H-K[Dab(3S-OH)][Dab(3S-OH)]G[dOrn]PHK[dR]-NH2)
++ (≤8 μg/mL)	++ (≤8 μg/mL)	− (>32 μg/mL)	− (>32 μg/mL)	N=C(N)NCC/C=C(\NC(=O)[C@H](CCCCN)NC(=O)[C@H](Cc1cnc[nH]1)NC(=O)[C@@H]1CCCN1C(=O)[C@@H](CCCN)NC(=O)CNC(=O)[C@@H](NC(=O)[C@@H](NC(=O)[C@@H](N)CCCCN)[C@@H](O)CN)[C@@H](O)CN)C(N)=O [22.31] (H-K[Dab(3S-OH)][Dab(3S-OH)]G[dOrn]PHK[ΔZArg]-NH2)
++ (≤8 μg/mL)	++ (≤8 μg/mL)	− (>32 μg/mL)	− (>32 μg/mL)	N=C(N)NCC/C=C(\NC(=O)[C@H](CCCCN)NC(=O)[C@H](Cc1ccccc1F)NC(=O)[C@@H]1CCCN1C(=O)[C@@H](CCCN)NC(=O)CNC(=O)[C@@H](NC(=O)[C@@H](NC(=O)[C@@H](N)CCCCN)[C@@H](O)CN)[C@@H](O)CN)C(=O)O [22.33] (H-K[Dab(3S-OH)][Dab(3S-OH)]G[dOrn]P[Phe(2-F)]K[ΔZArg]-OH)
++ (≤8 μg/mL)	++ (≤8 μg/mL)	− (>32 μg/mL)	− (>32 μg/mL)	COc1ccc(C[C@H](NC(=O)[C@@H]2CCCN2C(=O)[C@@H](CCCN)NC(=O)CNC(=O)[C@@H](NC(=O)[C@@H](NC(=O)[C@@H](N)CCCCN)[C@@H](O)CN)[C@@H](O)CN)C(=O)N[C@@H](CCCCN)C(=O)N/C(=C\CCNC(=N)N)C(=O)O)cc1OC [22.34] (H-K[Dab(3S-OH)][Dab(3S-OH)]G[dOrn]P[Phe(3,4-(OMe)2)]K[ΔZArg]-OH)

From patent publication US10626144B2, “Peptide derivatives and uses thereof” (Nosopharm, priority 2014, dated 2020)
